Five compounds from patent publication US20010039258A1, “Active agent transport systems” (Emisphere Technologies, Inc., priority 1990, published 2001) can be followed below.

Where two headings read alike, the source gives them in different places.

For series [1], the target named is rhGH (Homo sapiens, UniProt P01241). The series is described as follows: Isothermal titration calorimetry of rhGH with perturbants. In kind it is binding. Conditions: 30° C. Here is the method:
The ability of rhGh to complex with various perturbants was assessed by ITC using a Microcal Omega titrator, usually equilibrated at 30° C. The sample cell of the calorimeter was filled with degassed rhGH (usually at 0.25 mM) prepared in 50 mM phosphate buffer, pH 7.5 or 4.0. The perturbant (cyclohexanoyl chloride modified L-tyrosin (a), salicyloyl modified L-phenylalanine (b), or phenylsulfonyl-para-amino benzoic acid (c)) was then placed in the dropping syringe at 1 mM (for pH 7.5) and 2.5 mM, (for pH 4.0). Twenty to twenty-five 10 μl injections were made into rapidly mixing (400 rpm) solution with 2 minute intervals between injections.
Initial concentration of perturbant placed in the calorimeter sample cell assumed a formula weight of 200 for each perturbant. The pH of each solution was checked after dissolution, but no adjustments of the pH were required. All experiments were performed at 30° C. Initial concentration of rhGh placed in the dropping syringe assumed a molecular weight of 20,000 for rhGh. The pH of each solution was checked after dissolution, but no adjustment of the pH was required.
The heats of reaction were determined by integration of the observed peaks. To correct for heat of mixing and dilution, a control experiment was also performed under identical conditions where aliquots of the test perturbant or rhGh were added to buffer solution only.
(In general: In ITC the heat of successive injections is recorded.)

Series [2] has as its target T1, α-interferon (Homo sapiens, UniProt P01563).
T1 construct: purchased Schering Plough Corp
Briefly: Perturbant binding DSC with α-interferon. To be noted: α-interferon 0.64 mg/ml, pH 7.2. As to the method:
Perturbant binding DSC was conducted using 20 mM NaPhosphate buffer at pH 7.2. Dry perturbant was weighed out to make perturbant stock solutions. α-interferon stock was diluted in the buffer. α-interferon solution was not dialyzed prior to experiments for the purpose of having the same active concentration for the whole set.
DSC thermograms were generated with α-interferon at a concentration of 0.64 mg/ml and a perturbant (phenylsulfonyl-para-aminobenzoic acid purified to >98% (as determined by reverse phase chromatography prior to generation of the spectra)) at perturbant concentrations of 5, 10, 25 and 100 mg/ml. DSC was conducted on a DASM-4 differential scanning calorimeter interfaced to an IBM PC for automatic collection of the data. The scanning rate was 60° C./h.
The method of Example 19 was followed substituting α-interferon without perturbant. Results are illustrated in Table 9 below and FIG. 10. […]

Series [3] addresses T1, α-interferon. Briefly: Isothermal titration calorimetry of perturbant complexing with α-interferon. In kind it is binding. To be noted: 25° C.; for result of complexing with α-interferon at pH 3: 20 mM NaAc; for n (1), # of complexed perturbant molecules: curve fitting, multiple independent sites. Here is the method: Isothermal titration calorimetry of perturbant complexing with α-interferon was performed at 25° C. at two different pH's. The buffers used were 20 mM NaPhosphate for pH 7.2 and 20 mM NaAc for pH 3.0. α-interferon solution was dialyzed before the experiment to reach the appropriate pH. Dry perturbants were weighed and diluted in dialysate.
ITC was conducted on a MicroCal OMEGA titration calorimeter (MicroCal Inc.—Northampton, Mass.). Data points were collected every 2 seconds, without subsequent filtering. α-interferon solution placed in 1.3625 mL cell was titrated using a 250 μL syringe filled with concentrated perturbant solution. A certain amount of titrant was injected every 3-5 minutes for up to 55 injections.
A reference experiment to correct for the heat of mixing of two solutions, was performed identically except that the reaction cell was filled with buffer without active agent.
Analysis of the data was performed using the software developed at the Johns Hopkins University Biocalorimetry Center.
The titration at pH 7.2 included 53 injections of 2 μL of the perturbant of Example 30 (50 mg/mL=191.6 mM (MW 261)) and α-interferon (1.3 mg/mL=0.067 mM (MW 19400)).
The titration at pH 7.2 included two runs of […] each of 5 μL of perturbant (50 mg/mL=181 mM (FW 277)) and α-interferon (2.31 mg/mL=0.119 mM, (MW 19400)).
ITC was performed according to the method of Example 24 with 40 injections of 5 μL of the perturbant benzoyl para-amino phenylbutyric acid (7.5 mg/mL=24.59 mM, (FW 305)) and α-interferon (2.5 mg/mL=0.129 mM, (MW 19400)).

Series [4] is described as follows: DSC of heparin, effect of pH. The class given is physicochemical. Here is the method:
All thermograms were performed on a Microcal MC-2 scanning calorimeter equipped with the DA2 data acquisition system operated in the upscale mode at 1° C./min (up to 90° C.), and data points were collected at 20 second intervals. All scans were initiated at least 20 degrees below the observed transitions for the active agent. All thermograms were corrected for baseline subtraction and normalized for the concentration of macromolecule. According to the methods of the Johns Hopkins Biocalorimetry Center, See, for example, Ramsay et al. Biochemistry (1990) 29:8677-8693; Schon et al. Biochemistry (1989) 28:5019-5024 (1990) 29: 781-788. […]
(§1) Thermograms were corrected by subtraction of a heparin 0.05M NaCl-phosphate buffer blank, but an individual blank was not used for each NaCl concentration.

Series [5] is described as follows: DSC of heparin, effect of guanidine hydrochloride. The class given is physicochemical. Here is the method:
(§2) Scanning calorimetry was performed using 5 mg 0.83 mM porcine insulin (MW 6,000) per mL in 50 mM phosphate buffer, pH 7.5. All thermograms were performed on a Microcal MC-2 scanning calorimeter equipped with the DA2 data acquisition system operated in the upscale mode at 1° C./min (up to 90° C.), and data points were collected at 20 second intervals. All scans were initiated at least 20 degrees below the observed transitions for the active agent. All thermograms were corrected for baseline subtraction and normalized for the concentration of macromolecule. According to the methods of the Johns Hopkins Biocalorimetry Center, See, for example, Ramsay et al. Biochemistry (1990) 29:8677-8693; Schon et al. Biochemistry (1989) 28:5019-5024 (1990) 29: 781-788.
DSC thermograms of heparin at pH 5.0 were conducted according to the method of Example 9 using pH, GuHCl, and ionic strength as perturbants.
as §1

Series [6] in a line: DSC of heparin, effect of ionic strength. The class given is physicochemical. Conditions: pH 7.0. Here is the method: as §2, with “781-788. […]” for “781-788.”
as §1

T1 sequence (P01563 24-188): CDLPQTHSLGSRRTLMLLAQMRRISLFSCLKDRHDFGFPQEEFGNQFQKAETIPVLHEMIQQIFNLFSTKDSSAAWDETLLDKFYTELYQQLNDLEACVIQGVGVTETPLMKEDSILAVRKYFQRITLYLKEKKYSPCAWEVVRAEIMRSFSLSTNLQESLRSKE
Sequence of rhGH (P01241 27-217): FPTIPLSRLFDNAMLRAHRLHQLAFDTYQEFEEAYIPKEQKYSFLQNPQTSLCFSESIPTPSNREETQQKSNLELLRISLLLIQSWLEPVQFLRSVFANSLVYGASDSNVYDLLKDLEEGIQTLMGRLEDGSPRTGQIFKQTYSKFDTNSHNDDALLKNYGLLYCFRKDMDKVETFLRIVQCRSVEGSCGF

Consider `O=C(N[C@@H](Cc1ccccc1)C(=O)O)c1ccccc1O` [B, salicyloyl modified L-phenylalanine], for which, in series [1] (pH 4.0), the Kd was determined as 0.00161 µM, the ΔH is -35.6 kcal/mol and the ΔS is −90.0 eu. Besides, in series [1] (pH 7.5), the Kd stood at 1.11 µM, the ΔH entry is reported as “+2.1 kcal/mol” and the ΔS result was “+35.0 eu”.

For the compound `O=C(O)c1ccc(NS(=O)(=O)c2ccccc2)cc1` [perturbant of Example 19, phenylsulfonyl-para-aminobenzoic acid], in series [2] (perturbant 5 mg/ml), the “Tm of α-interferon” value is 64.37 °C and the “ΔH of α-interferon” value is 60.151 kcal/mol. Besides, in series [2] (perturbant 10 mg/ml), the “Tm of α-interferon” value was 62.3 °C and the “ΔH of α-interferon” value worked out at 53.161 kcal/mol. For the same compound, in series [2] (perturbant 25 mg/ml), the “Tm of α-interferon” value amounted to 58.15 °C and the “ΔH of α-interferon” value stood at 35.393 kcal/mol. In series [2] (perturbant 100 mg/ml), the “Tm of α-interferon” value turned out to be 46.18 °C and the “ΔH of α-interferon” value turned out to be 5.4393 kcal/mol. For the same compound, in series [3], the “result of complexing with α-interferon at pH 3” value was “precipitation of the complex out of the solution”. Further, in series [3] (pH 7.2), the “log 10 Ka (1), Ka=association constant” value is 2.82; the “ΔH (1)” value was −114.587 cal/Mole perturbant; the “n (1), # of complexed perturbant molecules” value is 55.12. For the same compound, in series [1] (pH 4.0), the Kd was 0.0267 µM, the ΔH was -1.2 kcal/mol and the ΔS is reported as −30.0 eu. In series [1] (pH 7.5), the Kd was 0.00111 µM, the ΔH result is given as “+0.8 kcal/mol” and the ΔS entry was “+44.0 eu”.

Turning to `O=C(NC(C(=O)O)c1ccccc1)C1CCCCC1` (stereo not drawn) [perturbant of Example 22, cyclohexanoyl phenylglycine], the entries for the “Tm of α-interferon” value in series [2] (perturbant 5 mg/ml), in series [2] (perturbant 10 mg/ml) and in series [2] (perturbant 25 mg/ml) were 63.00 °C, 59.49 °C and 52.79 °C, respectively. The “ΔH of α-interferon” value is 42.299 kcal/mol in series [2] (perturbant 5 mg/ml), 43.058 kcal/mol in series [2] (perturbant 10 mg/ml), 27.237 kcal/mol in series [2] (perturbant 25 mg/ml) and 0 kcal/mol in series [2] (perturbant 100 mg/ml). The “result of complexing with α-interferon at pH 3” value in series [3] was “negative enthalpy”. Also, the “ΔH (1)” value in series [3] (pH 7.2) came out at 58.5932 cal/Mole perturbant. Also, the “n (1), # of complexed perturbant molecules” value in series [3] (pH 7.2) was 121.0354. For the same compound, the Kd in series [3] (pH 7.2, read-out: binding constant (Kd)) is around 1000 µM; in series [3] (pH 7.2, read-out: log 10 Ka (1), Ka=association constant (converted)) it was 2990 µM.

Regarding Heparin, the ΔH in series [4] (pH 6.0) was 232.1 kcal/mol; in series [4] (pH 6.5, (a) domain) it was 213.9 kcal/mol; in series [4] (pH 6.5, (b) domain) it was 751.9 kcal/mol; in series [4] (pH 7.0, (a) domain) it was 187.1 kcal/mol; in series [4] (pH 7.0, (b) domain), 136.4 kcal/mol; in series [4] (pH 7.5), 499.4 kcal/mol. For the same compound, the ΔH was 287.3 kcal/mol in series [5] (0.5M GuHCl); 415.0 kcal/mol in series [5] (1.0M GuHCl); 1716.5 kcal/mol in series [5] (1.5M GuHCl); 2533.7 kcal/mol in series [5] (2.0M GuHCl); 499.4 kcal/mol in series [5] (no GuHCl); 72.9 kcal/mol in series [6] (0.0M NaCl). Moreover, the ΔH result in series [6] (0.25M NaCl), in series [6] (0.50M NaCl) and in series [6] (0.75M NaCl) was “not present” each time. Also, the ΔHvH turned out to be 13.8 kcal/mol in series [4] (pH 6.0); 56.8 kcal/mol in series [4] (pH 6.5, printed in line (b)); 27.6 kcal/mol in series [4] (pH 7.0, printed in line (b)); 83.8 kcal/mol in series [4] (pH 7.5); 170.9 kcal/mol in series [5] (0.5M GuHCl); 97.1 kcal/mol in series [5] (1.0M GuHCl). Besides, the ΔHvH is reported as 24.3 kcal/mol in series [5] (1.5M GuHCl), 19.2 kcal/mol in series [5] (2.0M GuHCl), 83.8 kcal/mol in series [5] (no GuHCl) and 136.4 kcal/mol in series [6] (0.0M NaCl). The Tm (Cp, max) in series [4] (pH 6.0, 20 μg/ml in 50 mM phosphate) came to 62.5 °C; in series [4] (pH 6.5, (a) domain), 62.7 °C; in series [4] (pH 6.5, (b) domain) it was 71.8 °C; in series [4] (pH 7.0, (a) domain) it was 47.1 °C; in series [4] (pH 7.0, (b) domain), 72.9 °C; in series [4] (pH 7.5), 66.2 °C. In addition, the Tm (Cp, max) in series [5] (0.5M GuHCl) stood at 50.5 °C; in series [5] (1.0M GuHCl) it was 60.5 °C; in series [5] (no GuHCl, 50 mM phosphate) it was 67.2 °C; in series [6] (0.0M NaCl, 20 μg/ml), 47.1 °C; in series [6] (0.25M NaCl) it was 46.1 °C; in series [6] (0.50M NaCl) it was 41.6 °C. Moreover, the Tm (Cp, max) in series [6] (0.75M NaCl) was 27.5 °C; in series [6] (1.0M NaCl), “no transition observed”.

In series [1] (pH 4.0), “cyclohexanoyl chloride modified L-tyrosine” returned a Kd of 78.1 µM, a ΔH of -1.5 kcal/mol and a ΔS of −5.6 eu. For the same compound, in series [1] (pH 7.5), the Kd came to 98.8 µM, the ΔH entry is listed as “+1.4 kcal/mol” and the ΔS result is “+23.5 eu”.
